Data set [1] is described as follows: TEM imaging of assembled morphology and diameters. Type of data set: physicochemical. The note with it: result in words. The text has this: To further confirm our speculation, we observe the assembled morphology of these molecules under its CAC concentrations. […] As those results indicated, the modification position of fluorescence molecules largely influenced the dispersity of designed molecules. […] As a threshold, the %SASA value around 75% distinguishes between assembly and soluble states. Thus, the optimal choice for modification position is decisive in %SASA regulation for successful molecular design.
In order to achieve a highly ordered superstructure in vivo, it is necessary to transfer the precursor with higher CAC content to the monomer with lower CAC content at the desired position under the trigger of some chemical reactions. In this work, the pre‐designed molecules trigger the conversion of precursors to monomers transformation through enzyme‐directed hydrolysis, and the substrate (DEVD) was cleaved by caspase 3/7. Due to the increased hydrophobicity and conformational changes, the resultant product further self‐assembled into the required superstructure. The previous study in this work confirmed five molecules with higher dispersity (Pβ‐R4C, Pα‐R4C, Pβ‐R4F, Pβ‐R4P, Pβ‐R4C‐D). Here, we studied the self‐assembly properties of […] related residues of these highly soluble molecules (R‐R4C, R‐R4F, R‐R4P, R‐R4C‐D).^[ [21] ^] […]

The nature of data set [2]: ThT (Thioflavin T) assay, critical aggregation/assembly concentration and dispersibility. Type of data set: physicochemical. The conditions noted are these: dose dependent assembling profile after incubation with ThT, Figure 3A. On the procedure:
For intracellular self-assembly, the rapid transformation from dispersed state to aggregate state in desired site is required. In other words, the molecules need to be stable monomeric states at other locations and present self-assembled states at the required locations. Therefore, location-specific self-assembly characteristics are the decisive factors for the success of molecular design. […] Then, different modification on four domains were carried out to evaluate its dispersity and self-assembly properties. We carried out ThT (Thioflavin T) analytic assay to evaluate whether those predesigned molecules presented relatively dispersed state. ThT is a sensitive probe to the lamellar β-sheet structure. When exposed to the lamellar β-sheet structure, ThT fluorescence was enhanced due to inserting into the lamellar structure.^[ [17] ^] […] In order to validate our hypophysis and quantitively determine the solubility of those molecules, we calculated the critical assembly concentration (CAC) of those molecules based on the ThT analysis. […] However, other molecules with R4 domain modifications all presented a higher CAC with ≥400 μM. […] ThT assay: the ThT assay was utilized to calculate the critical assembling concentration. […] Next, the fluorescence of ThT was measured with the excitation wavelength with 450 nm. Finally, the fluorescence intensity was recorded and normalized.

In data set [3] the test system is XIAP negative cell line L929. The data set can be described thus: CLSM imaging of cells coincubated with MDS molecules, XIAP negative cell line. Type of data set: cell-based. The note with it: 50 μM, 37 °C, 1 h, PBS washing. On the procedure: (§1) Drug delivery efficacy is one of the decisive factors for evaluating the drug delivery systems.
(§2) Cell culturing and CLSM imaging: H460, 786-O, L929 cell lines and EJ, RT112 cell lines were cultured in PRMI-1640 and DMEM respectively with 10% (v: v) fetal bovine serum, 1% penicillin–streptomycin in an incubator (Thermo Scientific) at 37 °C with 5% CO2 and 95% relative humidity. For observing the selectivity of MDS by CLSM imaging, all the cell lines were seeded with 1 x 10^5 cells per well, and cultured for 24 h, the cells were incubated with 50 μM Pβ-R4C and Pβ-R4F respectively at 37 °C for 1 h and followed by PBS washing. Subsequently, the cells were stained with Hoechst 33342 (1 mg ml^-1) at 37 °C for 10 min. Finally, the cells were washed by PBS twice and immediately observed under confocal laser scanning microscopy. For observing the selective drug accumulation by CLSM imaging, the H460 cell and L929 cells were seeded with 1 x 10^5 cells per well, and cultured for 24 h, then cells were incubated with 50 μM Pβ-R4C-D for 1 h, followed by PBS washing and observed by CLSM.

Data set [4] deals with XIAP positive cell lines (H460, 786-O, EJ, RT112). The data set can be described thus: CLSM imaging of cells coincubated with MDS molecules, XIAP positive cell lines. The format is cell-based. The conditions noted are these: 50 μM, 37 °C, 1 h, PBS washing.
Description: as §1
In order to evaluate the drug delivery efficacy, we directly observed the Py fluorescence by CLSM imaging. […] In addition, we performed the cell section analysis and directly observed the morphology of assemblies intracellularly (Figure 8D). The intracellular formed nanofibers confirmed the controllable in situ assembly of MDS. All those results verified that the drug delivery system was feasible for highly efficient drug delivery.
as §2, with “For observing the selective drug accumulation by CLSM imaging, the H460 cell and L929 cells were seeded with 1 x 10^5 cells per well, and cultured for 24 h, then cells were incubated with 50 μM Pβ-R4C-D for 1 h, followed by PBS washing and observed by CLSM.” left out

No end group written: not given here. *: point of attachment. FITC = O=C1OC2(c3ccc(O)cc3Oc3cc(O)ccc32)c2ccc(NC(=S)*)cc21

As to “AVPIAQKDEVDGC(Cy)KLVFFAEG [Pβ-R2C, Pβ with GC on R2 domain conjugated with Cy]”, the “assembled morphology (TEM)” value in data set [1] was “nanofibrous structures”. In data set [2], the “molecular concentration at which ThT fluorescence obviously increased” value was determined as 200 µM.

As for “AVPIAQKDEVDKLVFFAEC(FITC)G [Pβ-R4F, Pβ with FITC in R4 domain]”, the “fluorescent signal in cells (CLSM)” value in data set [3] is “No obvious fluorescent signal”; in data set [4], “strong Cy and FITC fluorescent signal”.

Take “AVPIAQKDEVDKLVFFAEC(Cy)G [Pβ-R4C, Pβ with fluorescent molecule Cy linked in R4 domain]”: the “fluorescent signal in cells (CLSM)” value was “No obvious fluorescent signal” in data set [3]; “strong Cy and FITC fluorescent signal” in data set [4].
